Drawing on patent publication US8952030B2, “Morphinan derivative” (priority 2011, dated 2015), this text covers inhibition in vivo, EC50 and Emax for 18 molecules.

For one assay, the system named is ICR male mice. Kind of assay: Analgesic activity (acetic acid writhing method). Type of assay: in vivo. The settings on record: Mus musculus, sc; 3 mg/kg subcutaneous, 0.6% acetic acid i.p., writhing inhibition rate vs solvent group; hydrochloride was used; read-out: Inhibitory activities against writhing. The protocol: ICR male mice were used as groups each consisting of eight mice. Twenty minutes after the subcutaneous administration of a test compound (3 mg/kg), a 0.6% aqueous solution of acetic acid was intraperitoneally administered (0.1 mL/10 g body weight), and from the point 5 minutes after the administration, number of writhing observed over 20 minutes was counted. The analgesic activity was evaluated on the basis of the writhing inhibition rate (% inhibition) of the test compound administration group with respect to the writhing number of the solvent administration group.
1): Hydrochloride was used. 2): The evaluation results of the inhibitory activities against writhing were classified on the basis of the inhibition rate as follows. ≧90%, +++; 70≦%<90, ++; 50≦%<70, +
In general terms: An intraperitoneal irritant provokes the stretching counted in writhing tests.

For a further assay, the target named is T1, opioid μ receptor (Homo sapiens, UniProt P35372).
T1 construct: expressed in transfected cells; host or cells: CHO cells
Kind of assay: Opioid receptor functional test (Lance Ultra cAMP Kit), μ receptor agonist activity. Type of assay: cell-based. Conditions: for EC50: CHO cells expressing μ opioid receptor, 10 μM forskolin, cAMP; for Emax at 10 µM: maximum concentration (10 μM), reaction did not reach the maximum, EC50 N.C., relative to DAMGO. The protocol:
(§1) Functional activities of the compounds of the present invention for the μ, […], and κ opioid receptors were investigated.
(§2) The test was performed according to a prescribed method by using Lance Ultra cAMP Kit (Perkin-Elmer). The agonist activities were evaluated as follows. The CHO cells expressing each opioid receptor (μ, δ, or κ) and a test compound were reacted in an assay buffer (1×HBSS, […], pH 7.4, […] IBMX (isobutylmethylxanthine), 7.5% BSA) for 30 minutes in the presence of 10 μM forskolin. Then, the cAMP detection reagent included in the kit was added, and after 1 hour, time-resolved fluorescence measurements were performed by using the EnVision plate reader (Perkin-Elmer). A dose-responce curve of the test compound was obtained from fluorescence values measured at 665 nm, and EC50 value and Emax value were calculated. The Emax value was calculated as a ratio of the maximum responce of the test compound with respect to the maximum responce of each control agent (SNC80 for δ, DAMGO for μ, U-69593 for κ) taken as 100%.
(§3) 1): Hydrochloride was used.

A further assay deals with T2, opioid κ receptor (Homo sapiens, UniProt P41145).
T2 construct: expressed in transfected cells; host or cells: CHO cells
Kind of assay: Opioid receptor functional test (Lance Ultra cAMP Kit), κ receptor agonist activity. The settings on record: for Emax: read-out: κ Receptor Emax; for Emax at 10 µM: maximum concentration (10 μM), reaction did not reach the maximum, EC50 N.C., relative to U-69593, read-out: κ Receptor responce rate at the maximum concentration (reference value). Type of assay: cell-based. The protocol:
as §1, §2, §3

In a further assay the target is T3, opioid δ receptor (Homo sapiens, UniProt P41143).
T3 construct: expressed in transfected cells; host or cells: CHO cells
The assay is described as follows: Opioid receptor functional test (Lance Ultra cAMP Kit), δ receptor agonist activity. Conditions: for Emax: read-out: δ Receptor Emax. Type of assay: cell-based. The protocol: as §1, §2, §3

The mark [1] stands for this setting: maximum response relative to DAMGO taken as 100%, hydrochloride was used, read-out: μ Receptor Emax.
[2] abbreviates: CHO cells expressing κ opioid receptor, 10 μM forskolin, cAMP, hydrochloride was used, read-out: κ Receptor EC50 value.
Where [3] appears, read: maximum response relative to U-69593 taken as 100%, hydrochloride was used.
[4] abbreviates: CHO cells expressing δ opioid receptor, 10 μM forskolin, cAMP, hydrochloride was used, read-out: δ Receptor EC50 value.
[5] abbreviates: maximum response relative to SNC80 taken as 100%, hydrochloride was used.
Where [6] appears, read: hydrochloride was used, read-out: μ Receptor responce rate at the maximum concentration (reference value).

Like-named read-outs stand apart in the source and are kept apart here. Bounds are passed on as bounds.

T2 sequence (P41145 whole entry): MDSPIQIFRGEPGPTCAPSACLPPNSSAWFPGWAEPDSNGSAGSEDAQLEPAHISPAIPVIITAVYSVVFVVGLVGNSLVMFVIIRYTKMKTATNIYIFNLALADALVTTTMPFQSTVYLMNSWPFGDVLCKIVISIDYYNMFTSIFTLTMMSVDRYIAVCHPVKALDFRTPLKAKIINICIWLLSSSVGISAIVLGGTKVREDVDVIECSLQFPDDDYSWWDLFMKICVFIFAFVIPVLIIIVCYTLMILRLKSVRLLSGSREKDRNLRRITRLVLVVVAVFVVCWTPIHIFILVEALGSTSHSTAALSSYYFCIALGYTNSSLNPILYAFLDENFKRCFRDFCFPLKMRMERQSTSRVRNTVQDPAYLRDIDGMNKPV
T1 sequence (P35372 whole entry): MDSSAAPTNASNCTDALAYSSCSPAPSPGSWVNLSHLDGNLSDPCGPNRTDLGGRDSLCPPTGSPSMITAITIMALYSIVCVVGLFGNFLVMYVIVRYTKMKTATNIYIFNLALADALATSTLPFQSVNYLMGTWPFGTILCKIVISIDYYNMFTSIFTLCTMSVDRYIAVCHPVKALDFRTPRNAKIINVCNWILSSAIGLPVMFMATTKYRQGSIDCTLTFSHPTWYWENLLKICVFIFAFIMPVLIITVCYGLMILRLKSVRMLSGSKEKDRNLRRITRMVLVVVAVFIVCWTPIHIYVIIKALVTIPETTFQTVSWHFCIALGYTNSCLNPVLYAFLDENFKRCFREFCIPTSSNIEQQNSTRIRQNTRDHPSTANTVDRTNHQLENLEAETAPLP
T3 sequence (P41143 whole entry): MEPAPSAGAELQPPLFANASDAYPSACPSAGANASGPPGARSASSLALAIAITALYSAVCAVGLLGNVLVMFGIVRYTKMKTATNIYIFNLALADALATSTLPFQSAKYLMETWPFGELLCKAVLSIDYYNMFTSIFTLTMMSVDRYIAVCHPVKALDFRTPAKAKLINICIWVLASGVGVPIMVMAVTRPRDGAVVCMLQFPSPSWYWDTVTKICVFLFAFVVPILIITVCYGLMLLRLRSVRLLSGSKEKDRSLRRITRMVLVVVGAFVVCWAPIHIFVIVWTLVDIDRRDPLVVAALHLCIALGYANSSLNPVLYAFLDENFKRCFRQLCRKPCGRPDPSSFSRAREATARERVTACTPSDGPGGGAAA

As usually defined, the EC50 is the concentration giving half of the maximal effect. In the case of `O=C(c1ccccc1)N1C[C@H]2C[C@@]34CCC1C2[C@@]31CCN(CC2CC2)[C@@H]4Cc2ccccc21` (stereo partly drawn) [Compound 298, [(1S,5aS,6R,11bR)-14-(Cyclopropylmethyl)-4,5,6,7-tetrahydro-1H-6,11b-(iminoethano)-1,5a-methanonaphtho[1,2-e]indol-3(2H,3aH,11cH)-yl](phenyl)methanone], the inhibition in vivo at 3 mg/kg in the assay with ICR male mice is at least 90%. Besides, the figures for the EC50 at opioid μ receptor (hydrochloride was used), on opioid κ receptor (setting [2]) and at opioid δ receptor (setting [4]) were above 50 nM, above 100 nM and below 10 nM, respectively. Also, the Emax is 16% at opioid μ receptor (setting [1]), 32% on opioid κ receptor (setting [3]) and 102% on opioid δ receptor (setting [5]).
For the molecule `Cc1cc(C)nc(N2C[C@H]3C[C@@]45CCC2C3[C@@]42CCN(CC3CC3)[C@@H]5Cc3ccc(O)cc32)n1` (stereo partly drawn) [Compound 223, (1S,5aS,6R,11bR)-14-(cyclopropylmethyl)-3-(4,6-dimethylpyrimidin-2-yl)-2,3,3a,4,5,6,7,11c-octahydro-1H-6,11b-(iminoethano)-1,5a-methanonaphtho[1,2-e]indol-10-ol], the inhibition in vivo at 3 mg/kg in the assay with ICR male mice was at least 90%.
In the case of `Oc1ccc2c(c1)C13CCN(CC4CC4)C(C2)C12CCC1C3[C@@H](CN1c1cc(F)ccn1)C2` (stereo partly drawn) [Compound 239], in the assay with ICR male mice, the inhibition in vivo at 3 mg/kg is at least 90%.
As for `COc1ccc2c(c1)[C@]13CCN(CC4CC4)[C@H](C2)[C@]12CCC1C3[C@@H](CN1c1nc(C)cc(C)n1)C2` (stereo partly drawn) [Compound 222, (1S,5aS,6R,11bR)-14-(cyclopropylmethyl)-3-(4,6-dimethylpyrimidin-2-yl)-10-methoxy-2,3,3a,4,5,6,7,11c-octahydro-1H-6,11b-(iminoethano)-1,5a-methanonaphtho[1,2-e]indole], the EC50 at opioid μ receptor (hydrochloride was used) is above 100 nM; on opioid δ receptor (setting [4]), below 10 nM. Also, the Emax was 52% on opioid μ receptor (setting [1]) and 105% on opioid δ receptor (setting [5]). In addition, the Emax at 10 µM at opioid κ receptor (hydrochloride was used) came out at 43%.
For the molecule `O=C(c1ccccc1)N1C[C@H]2C[C@@]34CC[C@@H]1[C@@H]2[C@@]31CCN(CCF)[C@@H]4Cc2ccc(O)cc21` [Compound 84, [(1S,3aR,5aS,6R,11bR,11cS)-14-(2-fluoroethyl)-10-hydroxy-1,2,3a,4,5,6,7,11c-octahydro-3H-6,11b-(iminoethano)-1,5a-methanonaphtho[1,2-e]indol-3-yl](phenyl)methanone], the Emax at 10 µM at opioid μ receptor (setting [6]) was determined as 20%; at opioid κ receptor (hydrochloride was used) it was 5.9%. Further, the EC50 on opioid δ receptor (setting [4]) was below 10 nM. The Emax at opioid δ receptor (setting [5]) came to 99%.
As to `O=C(Oc1ccccc1)N1C[C@H]2CC34CCC1C2C31CCN(CC2CC2)C4Cc2ccc(O)cc21` (stereo partly drawn) [Compound 195], the Emax is 5.6% on opioid μ receptor (read-out: μ Receptor responce rate at the maximum concentration (reference value)), 27% at opioid κ receptor and 92% on opioid δ receptor. In addition, the EC50 at opioid κ receptor is above 1 nM; at opioid δ receptor it was below 10 nM.
For `Nc1ccc2c(c1)[C@]13CCN(CC4CC4)[C@H](C2)[C@]12CCC1C3[C@@H](CN1C(=O)c1ccccc1)O2` (stereo partly drawn) [Compound 308, [(1S,5aS,6R,11bR)-10-Amino-14-(cyclopropylmethyl)-4,5,6,7-tetrahydro-1H-6,11b-(iminoethano)-1,5a-epoxynaphtho[1,2-e]indol-3(2H,3aH,11cH)-yl](phenyl)methanone], the Emax at 10 µM at opioid μ receptor (setting [6]) is 2.5%. For the same molecule, the EC50 was above 100 nM on opioid κ receptor (setting [2]) and below 10 nM at opioid δ receptor (setting [4]). The Emax turned out to be 38% at opioid κ receptor (setting [3]) and 94% on opioid δ receptor (setting [5]).
As for `Cc1cc(C)nc(N2C[C@H]3CC45CCC2C3C42CCN(CC(F)(F)c3ccccc3)C5Cc3ccc(O)cc32)n1` (stereo partly drawn) [Compound 283], the EC50 at opioid μ receptor (hydrochloride was used) is above 500 nM; on opioid δ receptor (setting [4]), below 50 nM. For the same molecule, the Emax was 101% at opioid μ receptor (setting [1]) and 91% at opioid δ receptor (setting [5]). At opioid κ receptor (hydrochloride was used), the Emax at 10 µM turned out to be 11%.
On to `Cc1cc(C)nc(N2C[C@H]3CC45CCC2C3C42CCN(CC3CC3)C5Cc3ccccc32)n1` (stereo partly drawn) [Compound 300], for which the EC50 on opioid μ receptor (hydrochloride was used) was above 100 nM; on opioid κ receptor (setting [2]), above 500 nM; on opioid δ receptor (setting [4]), below 50 nM. Also, the results for the Emax on opioid μ receptor (setting [1]), at opioid κ receptor (setting [3]) and at opioid δ receptor (setting [5]) were 26%, 39% and 105%, respectively.
For `Oc1ccc2c(c1)C13CCN(CC4CC4)C(C2)C12CCC1C3[C@@H](CN1c1nccs1)C2` (stereo partly drawn) [Compound 241], the Emax at 10 µM at opioid μ receptor (setting [6]) amounted to 11%. For the same molecule, the half-maximal effective concentration (EC50) at opioid κ receptor (setting [2]) is above 1 nM; at opioid δ receptor (setting [4]), below 10 nM. The Emax on opioid κ receptor (setting [3]) was 33%; at opioid δ receptor (setting [5]), 81%.
`O=C(c1ccco1)N1C[C@H]2O[C@@]34CC[C@@H]1[C@@H]2[C@@]31CCN(CC2CC2)[C@@H]4Cc2ccc(O)cc21` [Compound 50, [(1S,3aR,5aS,6R,11bR,11cS)-14-cyclopropylmethyl-10-hydroxy-1,2,3a,4,5,6,7,11c-octahydro-3H-6,11b-(iminoethano)-1,5a-epoxynaphtho[1,2-e]indol-3-yl](2-furyl)methanone]: the figures for the Emax at 10 µM at opioid μ receptor (setting [6]) and at opioid κ receptor (hydrochloride was used) were 5.4% and 12%, respectively. For the same molecule, the EC50 on opioid δ receptor (setting [4]) is below 1 nM. At opioid δ receptor (setting [5]), the Emax was 82%.
With `CN1CC[C@@]23c4cc(O)ccc4C[C@@H]1[C@]21CC[C@@H]2[C@H]3[C@@H](CN2C(=O)c2ccccc2)O1` [Compound 12, [(1S,3aR,5aS,6R,11bR,11cS)-10-hydroxy-14-methyl-1,2,3a,4,5,6,7,11c-octahydro-3H-6,11b-(iminoethano)-1,5a-epoxynaphtho[1,2-e]indol-3-yl](phenyl)methanone], the EC50 was above 1 nM at opioid μ receptor (hydrochloride was used), above 10 nM at opioid κ receptor and below 1 nM on opioid δ receptor (setting [4]). Moreover, the values for the Emax on opioid μ receptor (setting [1]), on opioid κ receptor and on opioid δ receptor (setting [5]) were 103%, 96% and 94%, respectively.
Regarding `CC(C)COC(=O)N1C[C@H]2CC34CCC1C2C31CCN(CC2CC2)C4Cc2ccc(O)cc21` (stereo partly drawn) [Compound 196], the Emax at 10 µM on opioid μ receptor (setting [6]) came out at 7.6%. Besides, the results for the half-maximal effective concentration (EC50) at opioid κ receptor (setting [2]) and on opioid δ receptor (setting [4]) were above 1 nM and below 10 nM, respectively. Besides, the Emax was determined as 12% on opioid κ receptor (setting [3]) and 67% on opioid δ receptor (setting [5]).
Turning to `Oc1ccc2c(c1)C13CCN(CC4CC4)C(C2)C12CCC1C3[C@@H](CN1c1ccc3ccccc3n1)C2` (stereo partly drawn) [Compound 243], the inhibition in vivo at 3 mg/kg in the assay with ICR male mice was 70 to 90%.
For `Oc1ccc2c(c1)[C@]13CCN(CC4CC4)[C@H](C2)[C@]12CCC1C3[C@@H](CN1c1ccccn1)C2` (stereo partly drawn) [Compound 221, (1S,5aS,6R,11bR)-14-(cyclopropylmethyl)-3-(pyridin-2-yl)-2,3,3a,4,5,6,7,11c-octahydro-1H-6,11b-(iminoethano)-1,5a-methanonaphtho[1,2-e]indol-10-ol], the half-maximal effective concentration (EC50) was above 1 nM at opioid μ receptor (hydrochloride was used), above 1 nM on opioid κ receptor (setting [2]) and below 1 nM on opioid δ receptor (setting [4]). The Emax at opioid μ receptor (setting [1]) is 30%; on opioid κ receptor (setting [3]), 42%; at opioid δ receptor (setting [5]), 90%.
Take `O=C(c1ccccc1)N1C[C@H]2O[C@@]34CC[C@@H]1[C@@H]2[C@@]31CCN(CC2CC2)[C@@H]4Cc2cccc(O)c21` [Compound 68, [(1S,3aR,5aS,6R,11bR,11cS)-14-(cyclopropylmethyl)-11-hydroxy-1,2,3a,4,5,6,7,11c-octahydro-3H-6,11b-(iminoethano)-1,5a-epoxynaphtho[1,2-e]indol-3-yl](phenyl)methanone]: the figures for the EC50 on opioid μ receptor (hydrochloride was used), on opioid κ receptor (setting [2]) and on opioid δ receptor (setting [4]) were above 100 nM, above 100 nM and below 10 nM, respectively. The Emax on opioid μ receptor (setting [1]) was 56%; on opioid κ receptor (setting [3]), 99%; at opioid δ receptor (setting [5]), 90%.
With `Oc1ccc2c(c1)C13CCN(CC4CC4)C(C2)C12CCC1C3[C@@H](CN1c1cnccn1)C2` (stereo partly drawn) [Compound 257], the inhibition in vivo at 3 mg/kg in the assay with ICR male mice fell in the range of 70 to 90%.
For the molecule `Oc1ccc2c(c1)C13C(O)CN(CC4CC4)C(C2)C12CCC1C3[C@@H](CN1Cc1ccccc1)O2` (stereo partly drawn) [Compound 329, (1S,3aR,5aS,6R,11bS,11cS,12R)-3-Benzyl-14-(cyclopropylmethyl)-1,2,3a,4,5,6,7,11c-octahydro-1H-6,11b-(iminoethano)-1,5a-epoxynaphtho[1,2-e]indole-10,12-diol], on opioid μ receptor (setting [6]), the Emax at 10 µM was 0.9%. The EC50 is above 10 nM on opioid κ receptor (setting [2]) and below 1 nM at opioid δ receptor (setting [4]). Besides, the Emax at opioid κ receptor (setting [3]) amounted to 14%; on opioid δ receptor (setting [5]), 76%.
